ChEMBL document CHEMBL1201862, “PubChem BioAssay data set” (2004)
Where “and” joins values, the source holds several entries; their conditions need not be identical. Equal entries are not always repeated.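 Method: 48-hour compound exposure of cells in 96-well plates, five concentrations, linear interpolation of endpoints. GI50: concentration for 50% inhibition of growth.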 Calls of active or inactive are those of the source. Rule as the data show it: active = GI50 up to about 1.1 µM and inactive = higher.

Experiments:
Test in all cases: inhibition of tumour cell growth, NCI panel, 48 h
A549 = system: A549
CAKI-1 = system: CAKI-1
COLO 205 = system: COLO 205
EKVX = system: EKVX
HCT-15 = system: HCT-15
Hs-578T = system: Hs-578T
LOX IMVI = system: LOX IMVI
MCF7 = system: MCF7
Malme-3M = system: Malme-3M
OVCAR-4 = system: OVCAR-4
OVCAR-8 = system: OVCAR-8
SF-268 = system: SF-268
SF-295 = system: SF-295
SF-539 = system: SF-539
SK-MEL-28 = system: SK-MEL-28
SN12C = system: SN12C
SNB-19 = system: SNB-19
TK-10 = system: TK-10
UO-31 = system: UO-31
MDA-MB-231 = system: MDA-MB-231

Row | SMILES | GI50 (A549) | GI50 (CAKI-1) | GI50 (COLO 205) | GI50 (EKVX) | GI50 (HCT-15) [µM] | GI50 (Hs-578T) | GI50 (LOX IMVI) | GI50 (MCF7) | GI50 (Malme-3M) | GI50 (OVCAR-4) | GI50 (OVCAR-8) | GI50 (SF-268) | GI50 (SF-295) | GI50 (SF-539) | GI50 (SK-MEL-28) | GI50 (SN12C) | GI50 (SNB-19) | GI50 (TK-10) | GI50 (UO-31) | GI50 (MDA-MB-231)
1 | CC(=O)OCC1OC(n2c(N)c(C#N)c(C)c(C#N)c2=S)C(OC(C)=O)C(OC(C)=O)C1OC(C)=O (stereo not given) | > 100 µM (inactive) | > 100 µM (inactive) | > 100 µM (inactive) | > 100 µM (inactive) | > 100 | > 100 µM (inactive) | > 100 µM (inactive) | > 100 µM (inactive) | > 100 µM (inactive) and 78.5 µM (inactive) | > 100 µM (inactive) | > 100 µM (inactive) | > 100 µM (inactive) | > 100 µM (inactive) | > 100 µM (inactive) | > 100 µM (inactive) | > 100 µM (inactive) | > 100 µM (inactive) | > 100 µM (inactive) | > 100 µM (inactive) | –
2 | Cc1ccc2sc3ccc(N)cc3c(=O)c2c1 | 54.2 µM (inactive) | 30.7 µM (inactive) | 42.5 µM (inactive) | 21.1 µM (inactive) | 24.8 | 47.2 µM (inactive) | 28.1 µM (inactive) | 26.5 µM (inactive) | – | 63.5 µM (inactive) | > 100 µM (inactive) | > 100 µM (inactive) | 40.4 µM (inactive) | 53.2 µM (inactive) | > 100 µM (inactive) | 81.1 µM (inactive) | > 100 µM (inactive) | > 100 µM (inactive) | 29 µM (inactive) | 86.7 µM (inactive)
3 | CNc1nc(N)nc(Nc2ccc(I)cc2)c1N=O | > 100 µM (inactive) | – | 36.4 µM (inactive) | > 100 µM (inactive) | > 100 | 39.1 µM (inactive) | > 100 µM (inactive) | > 100 µM (inactive) | > 100 µM (inactive) | – | > 100 µM (inactive) | > 100 µM (inactive) | > 100 µM (inactive) | > 100 µM (inactive) | > 100 µM (inactive) | > 100 µM (inactive) | > 100 µM (inactive) | > 100 µM (inactive) | 27 µM (inactive) | > 100 µM (inactive)
4 | COC1CC2CCC(C)[C@](O)(O2)C(=O)C(=O)N2CCCCC2C(=O)OC(C(C)CC2CCC(O)C(OC)C2)CC(=O)C(C)C=C(C)C(OC(=O)CN(C)C)C(OC)C(=O)C(C)CC(C)/C=C/C=C/C=C\1C (stereo not given in full) | 11 µM (inactive) | – | 11.3 µM (inactive) | < 0.01 µM (active) | 10.4 | < 0.01 µM (active) | < 0.01 µM (active) | < 0.01 µM (active) | < 0.01 µM (active) | < 0.01 µM (active) | 0.403 µM (active) | 7.19 µM (inactive) | < 0.01 µM (active) | < 0.01 µM (active) | 0.973 µM (active) | – | < 0.01 µM (active) | 11.6 µM (inactive) | < 0.01 µM (active) | 3.67 µM (inactive)
5 | Cc1cccc(C)c1NC(=O)C(=O)C(c1ccccc1Cl)S(=O)(=O)Cc1ccccc1Cl (stereo not given) | > 100 µM (inactive) | 39.3 µM (inactive) | > 100 µM (inactive) | > 100 µM (inactive) | > 100 | 41.4 µM (inactive) | > 100 µM (inactive) | > 100 µM (inactive) | – | > 100 µM (inactive) | > 37.8 µM (inactive) | 22.9 µM (inactive) | 23.7 µM (inactive) | 16 µM (inactive) | > 100 µM (inactive) | > 85.5 µM (inactive) | 41.5 µM (inactive) | > 61.2 µM (inactive) | > 100 µM (inactive) | 31.1 µM (inactive)
6 | S=C(Nc1c2c(nc3ccccc13)CCCC2)Nc1c2c(nc3ccccc13)CCCC2 | > 100 µM (inactive) | > 100 µM (inactive) | > 100 µM (inactive) | > 100 µM (inactive) | > 100 | > 100 µM (inactive) | – | > 100 µM (inactive) | > 100 µM (inactive) | > 100 µM (inactive) | > 100 µM (inactive) | > 100 µM (inactive) | > 100 µM (inactive) | – | > 100 µM (inactive) | > 100 µM (inactive) | > 100 µM (inactive) | > 100 µM (inactive) | > 100 µM (inactive) | > 100 µM (inactive)
7 | O=c1[nH]c(Nc2nc3ccccc3[nH]2)nc(O)c1Cc1ccccc1 | > 100 µM (inactive) | > 100 µM (inactive) | > 100 µM (inactive) | > 100 µM (inactive) | > 100 | 56 µM (inactive) | – | – | > 100 µM (inactive) | > 100 µM (inactive) | > 100 µM (inactive) | > 100 µM (inactive) | – | > 100 µM (inactive) | > 100 µM (inactive) | > 100 µM (inactive) | 67.8 µM (inactive) | > 100 µM (inactive) | > 100 µM (inactive) | > 100 µM (inactive)
8 | O=C1C=C2CO[C@H]3OC[C@H](O)[C@@H]1[C@@H]23 | > 100 µM (inactive) | 29 µM (inactive) | 16.4 µM (inactive) | > 100 µM (inactive) | 44 | > 100 µM (inactive) | 32.7 µM (inactive) | 43.2 µM (inactive) | 21.6 µM (inactive) | – | 32 µM (inactive) | 36.2 µM (inactive) | > 100 µM (inactive) | – | 33.6 µM (inactive) | 22.9 µM (inactive) | > 100 µM (inactive) | 59.3 µM (inactive) | 37.3 µM (inactive) | 73.3 µM (inactive)
9 | c1ccc(CCN2CCN=C2Cc2ccccc2)cc1 | > 100 µM (inactive) | – | > 100 µM (inactive) | > 100 µM (inactive) | > 100 | > 100 µM (inactive) | > 100 µM (inactive) | > 100 µM (inactive) | > 100 µM (inactive) | > 100 µM (inactive) | > 100 µM (inactive) | > 100 µM (inactive) | > 100 µM (inactive) | – | > 100 µM (inactive) | > 100 µM (inactive) | > 100 µM (inactive) | > 100 µM (inactive) | 99.1 µM (inactive) | > 100 µM (inactive)
10 | CCCCCCCCCCCCCCCCOC[C@H](COC(c1ccccc1)(c1ccccc1)c1ccccc1)O[PH](=S)OC (stereo not given in full) | > 100 µM (inactive) | > 100 µM (inactive) | > 100 µM (inactive) | > 100 µM (inactive) | > 100 | > 100 µM (inactive) | > 100 µM (inactive) | > 100 µM (inactive) | – | – | > 100 µM (inactive) | > 100 µM (inactive) | > 100 µM (inactive) | > 100 µM (inactive) | – | > 100 µM (inactive) | > 100 µM (inactive) | > 100 µM (inactive) | > 100 µM (inactive) | > 100 µM (inactive)
11 | Clc1ccc(OCc2nnc(COc3ccc(OCc4nnc(COc5ccc(Cl)cc5Cl)o4)c(Cl)c3)o2)c(Cl)c1 | 32 µM (inactive) | 24.8 µM (inactive) | 24.4 µM (inactive) | 13.6 µM (inactive) | 89.7 | 42.5 µM (inactive) | 17.3 µM (inactive) | 32.1 µM (inactive) | 37.6 µM (inactive) | – | 41.4 µM (inactive) | 23.5 µM (inactive) | 33.3 µM (inactive) | – | 46.5 µM (inactive) | 40.3 µM (inactive) | 68.4 µM (inactive) | 76 µM (inactive) | 17.9 µM (inactive) | 21.7 µM (inactive)
12 | COC(=O)c1cnc(Cl)c([N+](=O)[O-])c1 | 20.6 µM (inactive) | 11.2 µM (inactive) | 3.54 µM (inactive) | 1.8 µM (inactive) | 2 | 22.4 µM (inactive) | 1.93 µM (inactive) | 2.12 µM (inactive) | – | 21.1 µM (inactive) | 2.03 µM (inactive) | 2.64 µM (inactive) | 19 µM (inactive) | 16.6 µM (inactive) | 17.1 µM (inactive) | 12.9 µM (inactive) | 18.5 µM (inactive) | 16.3 µM (inactive) | 1.96 µM (inactive) | 16.3 µM (inactive)
13 | CC(=O)OCC1=CC2OC(=O)C3=COC(OC4OC(CO)C(O)C(O)C4O)C1C32 (stereo not given) | > 100 µM (inactive) | > 100 µM (inactive) | > 100 µM (inactive) | > 100 µM (inactive) | > 100 | > 100 µM (inactive) | > 100 µM (inactive) | > 100 µM (inactive) | – | > 100 µM (inactive) | > 100 µM (inactive) | > 100 µM (inactive) | > 100 µM (inactive) | > 100 µM (inactive) | > 100 µM (inactive) | > 100 µM (inactive) | > 100 µM (inactive) | > 100 µM (inactive) | > 100 µM (inactive) | > 100 µM (inactive)
14 | COc1cc(/C=C2\N=C(c3ccccc3)N(c3nc4c(Cl)cc(Cl)cc4s3)C2=O)ccc1O | 30.8 µM (inactive) | 46.3 µM (inactive) | 43.4 µM (inactive) | 17.9 µM (inactive) | 31.3 | 18.2 µM (inactive) | 20.5 µM (inactive) | 28.1 µM (inactive) | – | 29.2 µM (inactive) | 31.8 µM (inactive) | 30.1 µM (inactive) | 34.4 µM (inactive) | 41.6 µM (inactive) | 52 µM (inactive) | 22.2 µM (inactive) | 36.6 µM (inactive) | 39.9 µM (inactive) | 27 µM (inactive) | 25.8 µM (inactive)
15 | Cc1nc(C(N)=S)sc1/C(CC(=O)C(=O)Nc1cccc2ccc(O)cc12)=N\NC(=O)c1ccncc1 | > 100 µM (inactive) | > 100 µM (inactive) | 49.2 µM (inactive) | > 100 µM (inactive) | 41.9 | > 100 µM (inactive) | 42.2 µM (inactive) | 39.7 µM (inactive) | – | 49.9 µM (inactive) | 49.1 µM (inactive) | 82.8 µM (inactive) | > 100 µM (inactive) | 94.2 µM (inactive) | 74.8 µM (inactive) | 35.1 µM (inactive) | 73.5 µM (inactive) | 77.8 µM (inactive) | 98.2 µM (inactive) | > 100 µM (inactive)
